In data set [1] the test system is Normal human dermal fibroblasts (NHDF). The data set is described as follows: In vitro phototoxicity test (neutral red) on NHDF. It is filed as cell-based. As to the method:
Phototoxic potential of test compound was determined by modified in vitro test validated phototoxicity evaluation (Spielmann H, Balls M, Dupuis J, Pape W J, Pechovitch G, de Silva O, Holzhiitter H G, Clothier R, Desolle P, Gerberick F, Liebsch M, Lovell W W, Maurer T, Pfannenbecker U, Potthast J M, Csato M, Sladowski D, Steiling W, Brantom P. The International EU/COLIPA In Vitro Phototoxicity Validation Study: Results of Phase II (Blind Trial). Part 1: The 3T3 NRU Phototoxicity Test. Toxicol In Vitro. 1998; 12:305-27). Normal human dermal fibroblasts (NHDF) were used as an in vitro model. Cells were isolated from tissue specimens obtained from healthy patients undergoing plastic surgery at the Department of Plastic and Aesthetic Surgery (University Hospital Olomouc). The use of skin tissue was in accordance with the Ethics Committee of the University Hospital and Faculty of Medicine and Dentistry, Palacky University, Olomouc and all patients signed written informed consent. Fibroblasts were used between the 2nd and 4th passage. For all experiments the fibroblasts were seeded onto 96-well plates at a density of 0.8×10^5 cells/ml (0.2 ml per well) of cultivation medium (DMEM supplemented with fetal calf serum (10%, v/v), penicillin ([…]) and streptomycin (100 U/ml)). Test substances included compounds number 1, 3, 9, 15 and 20. Compounds were dissolved in DMSO and then diluted in serum free medium (DMEM supplemented with penicillin ([…]) and streptomycin (100 U/ml)). After 24 h incubation was cultivation medium changed to serum free medium containing test compound or DMSO (negative control). The final applied concentrations range 3.9-125 μmol/l. As a control, serum free medium supplemented with appropriate concentration of DMSO (0.5%, v/v) was used. In parallel with test compound, chlorpromazine (CPZ; 0.8-50 μmol/l) was used as a known phototoxic compound. The test compound was in parallel applied on two 96-well plates with NHDF. After 60 minutes incubation with test compound medium was discarded, cells were washed two-times with PBS and PBS supplemented with glucose (1 mg/ml) was applied. A plate was then exposed to a non-cytotoxic dose of UVA radiation (5.0 J/cm^2) using a solar simulator SOL 500 (Dr. Hoenle Technology, Germany) equipped with a H1 filter transmitting wavelengths of 320-400 nm. Intensity of UVA radiation was evaluated before each irradiation by UVA-meter. A control (non-irradiated) plate was for the period of irradiation incubated in dark. After UVA exposure PBS with glucose was discarded and serum free medium was applied. After 24 hours (37° C., 5% CO2) cell damage was evaluated by neutral red (NR) incorporation into viable cells. Medium was discarded and NR solution (0.03% w/v, PBS) was applied. After 60 minutes NR solution was discarded, cells were fixed with a mixture of formaldehyde (0.5%, v/v) and CaCl2 (1%, m/v) in ratio 1:1 and then NR was dissolved in methanol (50%, v/v) with acetic acid (1%, v/v). After 5 minutes of intensive shaking absorbance was measured at 540 nm. Experiments were performed in four independent repetitions with use of cells from four donors to minimize individual sensitivity of donor cells. Phototoxic effect was evaluated as % of viability of control cells that was calculated from experimental data (absorbance) according to the following equation:
[formula] • AS . . . absorbance of sample (cells pre-incubated with test compound in serum free medium and irradiated) • AC . . . absorbance of control (cells pre-incubated with DMSO in serum free medium and irradiated) • AB . . . absorbance of background (extraction solution)

A further data set relates to HaCaT. The data set is described as follows: In vitro phototoxicity test (neutral red) on HaCaT. The data set is classed as cell-based, human. The procedure:
Spontaneously Immortalized Aneuploid Human Keratinocyte Cell Line (HaCaT) was bought from CLS (Eppeheim, Germany) and used as an in vitro model. For all experiments the keratinocytes were seeded onto 96-well plates at a density of 1.6×10^5 cells/ml (0.2 ml per well) of growth medium (DMEM supplemented with fetal bovine serum (10%), penicillin ([…]) and streptomycin (100 U/ml)).
Test substances included compounds number 3, 9, 15 and 20. Compounds were dissolved in DMSO and then diluted in serum free medium (DMEM supplemented penicillin (100 mg/ml) and streptomycin (100 U/ml)). After 24 h incubation was growth medium changed to serum free medium containing test compound or DMSO (negative control). The final applied concentrations range was 3.9-125 μmol/l. As a control, serum free medium supplemented with appropriate concentration of DMSO (0.5%, v/v) was used. In parallel with test compound, chlorpromazine (CPZ; 0.8-50 μmol/l) was used as a known phototoxic compound. The test compound was in parallel applied on two 96-well plates with HaCaT. After 60 minutes incubation with test compound medium was discarded, cells were washed two-times with PBS and PBS supplemented with glucose (1 mg/ml) was applied. A plate was then exposed to a non-cytotoxic dose of UVA radiation (5.0 J/cm2) using a solar simulator SOL 500 (Dr. Hoenle Technology, Germany) equipped with a H1 filter transmitting wavelengths of 320-400 nm. Intensity of UVA radiation was evaluated before each irradiation by UVA-meter. A control (non-irradiated) plate was for the period of irradiation incubated in dark. After UVA exposure PBS with glucose was discarded and serum free medium was applied. After 24 hours (37° C., 5% CO2) cell damage was evaluated by neutral red (NR) incorporation into viable cells. Medium was discarded and NR solution (0.03% w/v, PBS) was applied. After 60 minutes NR solution was discarded, cells were fixed with a mixture of formaldehyde (0.5%, v/v) and CaCl2 (1%, m/v) in ratio 1:1 and then NR was dissolved in methanol (50%, v/v) with acetic acid (1%, v/v). After 5 minutes of intensive shaking absorbance was measured at 540 nm. Experiments were performed in four independent repetition with use of cells from four donors to minimize individual sensitivity of donor cells. Phototoxic effect was evaluated as % of viability of control cells that was calculated from experimental data (absorbance) according to the following equation: […]
AS . . . absorbance of sample (cells pre-incubated with test compound in serum free medium and irradiated)
AC . . . absorbance of control (cells pre-incubated with DMSO in serum free medium and irradiated)
AB . . . absorbance of background (extraction solution)

With `Clc1nc(NCC2CCCO2)c2ncn(C3CCCO3)c2n1` (stereo not shown) [Compound 20, 2-chloro-6-(tetrahydrofuran-2-ylmethylamino)-9-(tetrahydrofuran-2-yl)purine], the NHDF viability in data set [1] (+UVA 5.0 J/cm^2, 3.9 μmol/l) turned out to be 100.1 % control; in data set [1] (+UVA 5.0 J/cm^2, 7.8 μmol/l), 102.9 % control; in data set [1] (+UVA 5.0 J/cm^2, 15.6 μmol/l), 100.4 % control; in data set [1] (+UVA 5.0 J/cm^2, 31.3 μmol/l), 102.7 % control; in data set [1] (+UVA 5.0 J/cm^2, 62.5 μmol/l), 105.1 % control; in data set [1] (+UVA 5.0 J/cm^2, 125 μmol/l), 104.8 % control. Also, the NHDF viability in data set [1] (−UVA, 3.9 μmol/l) amounted to 103.1 % control; in data set [1] (−UVA, 7.8 μmol/l) it was 102.9 % control; in data set [1] (−UVA, 15.6 μmol/l), 100.6 % control; in data set [1] (−UVA, 31.3 μmol/l) it was 105.6 % control; in data set [1] (−UVA, 62.5 μmol/l), 102 % control; in data set [1] (−UVA, 125 μmol/l), 104 % control. In addition, the HaCaT viability stood at 104.6 % control with HaCaT (+UVA 5.0 J/cm2, 3.9 μmol/l); 112.1 % control in the data set with HaCaT (+UVA 5.0 J/cm2, 7.8 μmol/l); 110.1 % control in the data set on HaCaT (+UVA 5.0 J/cm2, 15.6 μmol/l); 121.4 % control in the data set with HaCaT (+UVA 5.0 J/cm2, 31.3 μmol/l); 125.8 % control in the data set on HaCaT (+UVA 5.0 J/cm2, 62.5 μmol/l); 125.9 % control in the data set with HaCaT (+UVA 5.0 J/cm2, 125 μmol/l). Further, the HaCaT viability in the data set on HaCaT (−UVA, 3.9 μmol/l) is listed as 103.5 % control; with HaCaT (−UVA, 7.8 μmol/l) it was 102.9 % control; in the data set on HaCaT (−UVA, 15.6 μmol/l), 104.1 % control; in the data set with HaCaT (−UVA, 31.3 μmol/l) it was 108.6 % control; in the data set with HaCaT (−UVA, 62.5 μmol/l), 110.7 % control; in the data set on HaCaT (−UVA, 125 μmol/l) it was 110.5 % control.

On to `CN(C)CCCN1c2ccccc2Sc2ccc(Cl)cc21` [chlorpromazine, reference compound], for which the “viability of NHDF cells” value in data set [1] (UVA+, 6.3 μmol/l) is “below 80 % of control”; in data set [1] (UVA−, 25 μmol/l), “below 80%”. Besides, the “viability of HaCaT cells” value in the data set with HaCaT (UVA+, 3.1 μmol/l) is on record as “below 80 % of control”; in the data set with HaCaT (UVA−, 25 μmol/l), “below 70%”.

(Values after patent publication US10774084B2, “Adenine derivatives and their use as UV-photoprotective agents” (UNIVERZITA PALACKEHO V OLOMOUCI, priority 2015, dated 2020).)
